Measurements from article PMC8587515, “Cytotoxic and Anti-Inflammatory Activities of Dihydroisocoumarin and Xanthone Derivatives from Garcinia picrorhiza” (Molecules, 2021).

Tests used:
[1] = test system: NO production in LPS-IFN-γ-induced RAW 264.7 macrophages; assay: NO production inhibition assay (Griess), RAW 264.7; assay type: cell-based, mouse; conditions: for IC50: Mus musculus, RAW264.7, LPS-IFN-γ-induced, 16 h, mean ± SEM (n = 6), read-out: IC50, iNOS (inhibition of NO production), RAW 264.7; for suppression of NO production, RAW 264.7: final concentration of 50 µM, preliminary screen
Experimental: (§1) Compounds 1–8 were screened for their inhibitory effects on nitric oxide production in LPS-IFN-γ activated RAW 264.7 macrophages and BV-2 microglial cells at a final concentration of 50 µM. […] A deprenylated furanoxanthone structure with ortho hydroxy group in ring B as in 7 might be important to enhance the inhibitory effect when compared to 6 and 8.
(§2) The iNOS inhibitory activity of the isolated compounds and respective cytotoxicity was determined using a previously described protocol. Briefly, BV-2 mouse microglial (25,000 cells/well) and RAW 264.7 mouse macrophage (100,000 cells/well) cell lines were seeded into 96-well plates in high glucose Dulbecco’s Modified Eagle’s Medium (DMEM, Gibco) containing 4 mM L-glutamine, 10% FBS, 2% HEPES, 1% penicillin/streptomycin, and 0.5% amphotericin B. After incubation for 24 h at 37 °C in a 5% CO2 humidified atmosphere, the cells were stimulated with 0.05% LPS (Sigma) and 0.025% interferon-γ (Roche Diagnostics, Mannheim, Germany) and treated with different concentrations (5–100 μM) of the tested compounds. The level of NO production in cell culture supernatants was determined using Griess reagent (Sigma) by photocolorimetric analysis after 16 h of incubation, using a Hidex Sense Microplate Reader (Hidex, Turku, Finland). Fifty microliters of XTT reagent (Sigma, Kit II) was then added into the same plates for cell viability measurement after 60 min incubation. L-NMMA (Alexis, Grünberg, Germany) 100 µM was used as the positive control, while 1% DMSO and digitonin (Roth, Karlsruhe, Germany) 400 µM were used as the vehicle and negative control, respectively. The assays were conducted in triplicates and repeated in two independent experiments. IC50 values were determined by graphical analysis using GraphPad Prism 7 (GraphPad Software, La Jolla, CA, USA).

[2] = Cytotoxicity (XTT cell viability), RAW 264.7; assay type: cell-based; conditions: mouse, RAW 264.7 macrophage cells, LPS/IFN-γ-stimulated, LPS-IFN-γ-induced cells, mean ± SEM (n = 6)
Experimental: as §1, §2

[3] = test system: NO production in LPS-IFN-γ-induced BV-2 microglial cells; assay: NO production inhibition assay (Griess), BV-2; assay type: cell-based, mouse; conditions: for IC50: Mus musculus, BV-2, LPS-IFN-γ-induced, 16 h, mean ± SEM (n = 6), read-out: IC50, iNOS (inhibition of NO production), BV-2; for suppression of NO production, BV-2: final concentration of 50 µM, preliminary screen; for IC50 of NO inhibition lower than the cytotoxic activity, BV-2: ratio cytotoxicity IC50 / NO inhibition IC50 in BV-2 cells
Experimental: as §1, §2

[4] = Cytotoxicity (XTT cell viability), BV-2; assay type: cell-based; conditions: mouse, BV-2 microglial cells, LPS/IFN-γ-stimulated, LPS-IFN-γ-induced cells, mean ± SEM (n = 6)
Experimental: as §1, §2

[5] = molecular target: T1, COX-1 (purified PGHS-1 from ram seminal vesicles) (Ovis aries, UniProt P05979); assay: COX-1 enzyme inhibition assay (PGE2 ELISA); assay type: biochemical; conditions: mean ± SD (n = 4)
T1 construct: Purified PGHS-1 from ram seminal vesicles for COX-1; purchased Cayman Chemical Co., Ann Arbor, MI, USA; host or cells: ram seminal vesicles (tissue-purified)
T1 sequence (P05979 25-600): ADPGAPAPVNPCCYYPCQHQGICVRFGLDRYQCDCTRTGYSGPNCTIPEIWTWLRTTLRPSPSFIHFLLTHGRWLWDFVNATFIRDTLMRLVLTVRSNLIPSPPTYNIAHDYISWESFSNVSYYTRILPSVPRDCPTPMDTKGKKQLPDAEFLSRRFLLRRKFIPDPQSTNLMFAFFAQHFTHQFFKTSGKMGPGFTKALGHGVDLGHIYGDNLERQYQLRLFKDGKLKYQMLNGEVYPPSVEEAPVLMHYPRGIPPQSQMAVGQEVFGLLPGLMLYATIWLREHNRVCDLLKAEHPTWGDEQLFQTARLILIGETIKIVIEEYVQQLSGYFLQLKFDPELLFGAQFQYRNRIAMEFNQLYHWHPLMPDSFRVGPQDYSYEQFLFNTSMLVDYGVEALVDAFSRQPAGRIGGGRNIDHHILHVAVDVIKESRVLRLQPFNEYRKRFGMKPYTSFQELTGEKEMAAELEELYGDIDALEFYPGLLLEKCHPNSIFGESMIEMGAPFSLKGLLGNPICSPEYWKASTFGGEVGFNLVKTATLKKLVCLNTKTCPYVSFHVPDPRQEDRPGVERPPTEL
Experimental: The anti-inflammatory effects of the isolated compounds were also screened on COX-1 and COX-2 enzymes inhibition at a final concentration of 20 µM.
Purified PGHS-1 from ram seminal vesicles for COX-1 and human recombinant PGHS-2 for COX-2 (Cayman Chemical Co., Ann Arbor, MI, USA) were used for the COX inhibition assays. Experiments were performed in a 96-well plate format, as previously described. Briefly, the incubation mixture contained 180 µL of 0.1 M TRIS/HCl-buffer pH 8.0 (Roth, Karlsruhe, Germany), 50 µM Na2EDTA (only for COX-2, Titriplex III, Merck, Darmstadt, Germany), 18 mM L-epinepherine bitartrate (Fluka, Buchs, Switzerland), 5 µM porcine hematin (MP Biomedicals LLC, Solon, OH, USA), and COX-1 or COX-2 enzymes (0.2 U/well). Ten microliters of tested compounds (dissolved in DMSO with a final concentration of 20 µM) was added and the mixture was pre-incubated for 5 min at room temperature. Thereafter, 10 µL of 5 µM arachidonic acid (Ann Arbor, Michigan USA) was added to the mixture and incubated for 20 min at 37 °C. The reaction was subsequently stopped by adding 10 µL of 10% (v/v) formic acid. The concentration of PGE2 generated in the reaction was quantitatively measured by a competitive PGE2 ELISA kit (Enzo Life Sciences Inc., Farmingdale, NY, USA) according to the manufacturer’s protocol and previous procedure. The absorbance at 405 nm was measured using a Hidex Sense Microplate Reader (Hidex, Turku, Finland). […] The assays were performed in duplicates and repeated in two independent experiments.

Row | Compound | IC50 [1] [µM] | suppression of NO production, RAW 264.7 [1] | IC50 at 16 h [2] [µM] | IC50 [3] [µM] | suppression of NO production, BV-2 [3] | IC50 of NO inhibition lower than the cytotoxic activity, BV-2 [3] [fold] | IC50 at 16 h [4] [µM] | inhibition at 20 µM [5] [%]
1 | C[C@@H]1Oc2cc(O)c3c(=O)c4ccc(O)c(O)c4oc3c2C1(C)C [Compound 7, 2-deprenylrheediaxanthone B] | 45.6 ± 6.5 | over 70% | 85.6 ± 6.9 | 28.7 ± 2.3 | over 70% | 1.1 | 31.7 ± 4.7 | 15.4 ± 7.5
2 | C[C@H]1Oc2c(c(O)c3c(=O)c4ccc(O)c(O)c4oc3c2CCC(C)(C)O)C1(C)C [Compound 4, gerontoxanthone C hydrate] | 84.3 ± 3.5 | over 70% | > 200 | 20 ± 4 | over 70% | 1.4 | 27.7 ± 6.4 | 32.4 ± 7.9
